Laboratory results: the kinase profiling compilation of Christmann-Franck et al. (2016)

Legend:
Test in all cases: KINOMEscan competition binding
Conditions in all cases: compound 0.1 µM
[1] = test system: ABL1 (human), P00519 [E255K]
ACVR2A (human) = ACVR2A (human) (UniProt P27037)
AURKA (human) = AURKA (human) (UniProt O14965)
BLK (human) = BLK (human) (UniProt P51451)
BMPR2 (human) = BMPR2 (human) (UniProt Q13873)
CAMK2B (human) = CAMK2B (human) (UniProt Q13554)
CAMKK1 (human) = CAMKK1 (human) (UniProt Q8N5S9)
CDC2L2 (human) = CDC2L2 (human) (UniProt Q9UQ88)
CDC42BPA (human) = CDC42BPA (human) (UniProt Q5VT25)
CSNK1G1 (human) = CSNK1G1 (human) (UniProt Q9HCP0)
DMPK (human) = DMPK (human) (UniProt Q09013)
DYRK1A (human) = DYRK1A (human) (UniProt Q13627)
EPHA1 (human) = EPHA1 (human) (UniProt P21709)
EPHA3 (human) = EPHA3 (human) (UniProt P29320)
EPHB3 (human) = EPHB3 (human) (UniProt P54753)
ERBB3 (human) = ERBB3 (human) (UniProt P21860)
GRK7 (human) = GRK7 (human) (UniProt Q8WTQ7)
GSK3A (human) = GSK3A (human) (UniProt P49840)
IGF1R (human) = IGF1R (human) (UniProt P08069)
[2] = target: JAK2 JH1 catalytic (human) (UniProt O60674)
LATS2 (human) = LATS2 (human) (UniProt Q9NRM7)
LIMK2 (human) = LIMK2 (human) (UniProt P53671)
LRRK2 (human) = LRRK2 (human) (UniProt Q5S007)
LRRK2 (human), sequence (Q5S007 whole entry, looked up): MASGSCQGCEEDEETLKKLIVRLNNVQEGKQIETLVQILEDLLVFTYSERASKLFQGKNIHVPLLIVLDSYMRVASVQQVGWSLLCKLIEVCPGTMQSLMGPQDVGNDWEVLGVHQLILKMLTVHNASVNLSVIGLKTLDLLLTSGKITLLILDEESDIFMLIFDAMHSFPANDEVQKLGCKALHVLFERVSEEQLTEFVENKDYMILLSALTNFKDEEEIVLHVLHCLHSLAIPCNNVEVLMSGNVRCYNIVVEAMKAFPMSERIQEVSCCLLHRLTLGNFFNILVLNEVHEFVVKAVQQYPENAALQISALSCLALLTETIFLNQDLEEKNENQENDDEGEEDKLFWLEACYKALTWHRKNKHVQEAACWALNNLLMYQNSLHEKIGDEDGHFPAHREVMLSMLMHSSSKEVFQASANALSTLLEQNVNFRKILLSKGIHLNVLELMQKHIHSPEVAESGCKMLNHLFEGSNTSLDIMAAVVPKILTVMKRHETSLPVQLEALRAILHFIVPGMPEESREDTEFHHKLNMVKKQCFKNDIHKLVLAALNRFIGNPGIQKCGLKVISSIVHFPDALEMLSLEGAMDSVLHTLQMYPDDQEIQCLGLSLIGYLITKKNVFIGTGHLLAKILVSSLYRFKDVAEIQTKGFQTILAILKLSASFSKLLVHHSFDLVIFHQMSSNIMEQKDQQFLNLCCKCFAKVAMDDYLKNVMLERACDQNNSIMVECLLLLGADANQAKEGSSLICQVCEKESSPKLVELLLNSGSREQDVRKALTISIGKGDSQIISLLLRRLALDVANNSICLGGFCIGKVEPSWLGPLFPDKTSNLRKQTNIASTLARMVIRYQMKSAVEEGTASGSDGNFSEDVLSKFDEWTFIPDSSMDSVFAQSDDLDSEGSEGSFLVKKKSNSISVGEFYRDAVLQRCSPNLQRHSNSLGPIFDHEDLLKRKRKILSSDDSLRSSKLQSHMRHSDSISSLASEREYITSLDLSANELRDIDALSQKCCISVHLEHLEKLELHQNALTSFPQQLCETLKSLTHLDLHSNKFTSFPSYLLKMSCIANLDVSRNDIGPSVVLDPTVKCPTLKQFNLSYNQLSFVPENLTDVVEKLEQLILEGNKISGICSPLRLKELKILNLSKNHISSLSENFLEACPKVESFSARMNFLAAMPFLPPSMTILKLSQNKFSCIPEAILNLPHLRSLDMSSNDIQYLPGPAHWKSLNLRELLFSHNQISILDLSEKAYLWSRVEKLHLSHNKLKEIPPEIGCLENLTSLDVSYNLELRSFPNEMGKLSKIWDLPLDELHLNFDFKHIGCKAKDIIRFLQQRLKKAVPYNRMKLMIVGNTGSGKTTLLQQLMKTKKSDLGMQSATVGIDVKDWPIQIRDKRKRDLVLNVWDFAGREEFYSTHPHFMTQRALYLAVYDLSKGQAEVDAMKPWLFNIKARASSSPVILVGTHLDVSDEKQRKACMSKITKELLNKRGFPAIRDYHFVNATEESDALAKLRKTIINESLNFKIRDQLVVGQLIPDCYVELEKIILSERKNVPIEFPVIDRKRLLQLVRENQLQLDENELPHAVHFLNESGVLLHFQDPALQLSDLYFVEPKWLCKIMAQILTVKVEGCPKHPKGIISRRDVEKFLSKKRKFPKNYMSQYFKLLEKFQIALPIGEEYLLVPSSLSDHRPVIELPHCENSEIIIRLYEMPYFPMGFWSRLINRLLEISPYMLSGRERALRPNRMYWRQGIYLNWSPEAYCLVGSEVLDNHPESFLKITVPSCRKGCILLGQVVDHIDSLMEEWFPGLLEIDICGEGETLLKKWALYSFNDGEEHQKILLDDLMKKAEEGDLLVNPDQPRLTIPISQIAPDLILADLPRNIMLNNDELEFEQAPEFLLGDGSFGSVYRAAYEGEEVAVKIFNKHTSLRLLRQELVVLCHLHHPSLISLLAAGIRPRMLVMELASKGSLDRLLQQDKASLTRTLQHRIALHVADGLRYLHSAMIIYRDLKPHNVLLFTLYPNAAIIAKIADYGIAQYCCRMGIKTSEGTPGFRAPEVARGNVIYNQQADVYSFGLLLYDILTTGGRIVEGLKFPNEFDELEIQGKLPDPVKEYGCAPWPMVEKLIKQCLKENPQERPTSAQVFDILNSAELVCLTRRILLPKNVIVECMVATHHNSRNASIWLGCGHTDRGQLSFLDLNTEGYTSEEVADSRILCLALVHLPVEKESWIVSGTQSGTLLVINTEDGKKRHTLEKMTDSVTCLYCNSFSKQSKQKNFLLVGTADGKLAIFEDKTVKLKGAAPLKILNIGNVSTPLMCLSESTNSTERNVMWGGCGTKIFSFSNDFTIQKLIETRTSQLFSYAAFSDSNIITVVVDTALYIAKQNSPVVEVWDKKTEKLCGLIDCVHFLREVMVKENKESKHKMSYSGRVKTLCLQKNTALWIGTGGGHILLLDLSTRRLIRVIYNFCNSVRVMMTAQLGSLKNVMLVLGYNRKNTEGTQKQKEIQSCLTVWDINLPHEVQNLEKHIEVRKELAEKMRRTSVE

MAP4K2 (human) = MAP4K2 (human) (UniProt Q12851)
MAPK12 (human) = MAPK12 (human) (UniProt P53778)
MAPK7 (human) = MAPK7 (human) (UniProt Q13164)
MAPK7 (human), sequence (Q13164 whole entry, looked up): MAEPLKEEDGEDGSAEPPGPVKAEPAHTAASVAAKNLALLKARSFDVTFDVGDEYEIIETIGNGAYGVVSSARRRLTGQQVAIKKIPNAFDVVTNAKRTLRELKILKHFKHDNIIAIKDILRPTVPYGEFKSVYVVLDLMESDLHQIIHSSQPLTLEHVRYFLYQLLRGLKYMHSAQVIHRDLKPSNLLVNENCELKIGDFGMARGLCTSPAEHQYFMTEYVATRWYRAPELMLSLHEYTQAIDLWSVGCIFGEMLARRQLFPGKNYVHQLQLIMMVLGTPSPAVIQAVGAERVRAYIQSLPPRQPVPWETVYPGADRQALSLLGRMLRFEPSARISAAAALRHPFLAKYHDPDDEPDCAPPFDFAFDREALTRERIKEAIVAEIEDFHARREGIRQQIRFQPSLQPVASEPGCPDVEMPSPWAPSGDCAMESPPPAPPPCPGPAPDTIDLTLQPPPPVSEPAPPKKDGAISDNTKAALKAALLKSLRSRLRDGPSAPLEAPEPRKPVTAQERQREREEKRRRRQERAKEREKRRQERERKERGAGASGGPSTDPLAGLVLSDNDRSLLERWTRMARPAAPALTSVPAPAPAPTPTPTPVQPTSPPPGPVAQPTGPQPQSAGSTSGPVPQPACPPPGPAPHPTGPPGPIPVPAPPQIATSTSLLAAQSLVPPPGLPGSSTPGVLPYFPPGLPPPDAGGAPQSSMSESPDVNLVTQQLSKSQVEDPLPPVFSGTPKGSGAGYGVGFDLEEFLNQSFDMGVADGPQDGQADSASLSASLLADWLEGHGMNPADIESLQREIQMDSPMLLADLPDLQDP

MET (human) = MET (human) (UniProt P08581)
NUAK2 (human) = NUAK2 (human) (UniProt Q9H093)
[3] = test system: PIK3CA (human), P42336 [C420R]
[4] = test system: PIK3CA (human), P42336 [M1043I]
PIK3CD (human) = PIK3CD (human) (UniProt O00329)
PRKCD (human) = PRKCD (human) (UniProt Q05655)
RPS6KA4 KD1 (human) = RPS6KA4 KD1 (human) (UniProt O75676)
SNRK (human) = SNRK (human) (UniProt Q9NRH2)
SRPK1 (human) = SRPK1 (human) (UniProt Q96SB4)
SRPK1 (human), sequence (Q96SB4 whole entry, looked up): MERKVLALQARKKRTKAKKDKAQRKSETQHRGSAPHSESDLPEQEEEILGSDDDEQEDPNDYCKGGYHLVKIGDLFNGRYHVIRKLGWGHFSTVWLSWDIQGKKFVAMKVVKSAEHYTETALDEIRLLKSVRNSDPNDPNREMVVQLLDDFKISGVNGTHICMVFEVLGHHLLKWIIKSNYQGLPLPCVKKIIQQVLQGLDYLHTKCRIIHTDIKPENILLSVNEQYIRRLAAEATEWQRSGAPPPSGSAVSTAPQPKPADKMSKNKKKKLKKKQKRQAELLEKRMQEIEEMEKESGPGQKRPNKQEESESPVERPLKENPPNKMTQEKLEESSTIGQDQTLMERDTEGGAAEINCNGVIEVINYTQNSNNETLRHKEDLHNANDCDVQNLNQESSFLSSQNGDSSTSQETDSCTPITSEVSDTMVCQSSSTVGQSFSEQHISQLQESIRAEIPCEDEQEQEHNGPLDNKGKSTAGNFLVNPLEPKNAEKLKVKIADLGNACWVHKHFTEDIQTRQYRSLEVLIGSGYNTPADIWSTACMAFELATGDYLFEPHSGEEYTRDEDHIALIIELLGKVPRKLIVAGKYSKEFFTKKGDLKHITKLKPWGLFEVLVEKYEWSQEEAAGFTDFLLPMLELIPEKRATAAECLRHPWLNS

STK35 (human) = STK35 (human) (UniProt Q8TDR2)
TESK1 (human) = TESK1 (human) (UniProt Q15569)
TNK2 (human) = TNK2 (human) (UniProt Q07912)
[5] = target: TYK2 JH1 catalytic (human) (UniProt P29597)
YSK4 (human) = YSK4 (human) (UniProt Q56UN5)

BMPR2 (human), sequence (Q13873 whole entry, looked up): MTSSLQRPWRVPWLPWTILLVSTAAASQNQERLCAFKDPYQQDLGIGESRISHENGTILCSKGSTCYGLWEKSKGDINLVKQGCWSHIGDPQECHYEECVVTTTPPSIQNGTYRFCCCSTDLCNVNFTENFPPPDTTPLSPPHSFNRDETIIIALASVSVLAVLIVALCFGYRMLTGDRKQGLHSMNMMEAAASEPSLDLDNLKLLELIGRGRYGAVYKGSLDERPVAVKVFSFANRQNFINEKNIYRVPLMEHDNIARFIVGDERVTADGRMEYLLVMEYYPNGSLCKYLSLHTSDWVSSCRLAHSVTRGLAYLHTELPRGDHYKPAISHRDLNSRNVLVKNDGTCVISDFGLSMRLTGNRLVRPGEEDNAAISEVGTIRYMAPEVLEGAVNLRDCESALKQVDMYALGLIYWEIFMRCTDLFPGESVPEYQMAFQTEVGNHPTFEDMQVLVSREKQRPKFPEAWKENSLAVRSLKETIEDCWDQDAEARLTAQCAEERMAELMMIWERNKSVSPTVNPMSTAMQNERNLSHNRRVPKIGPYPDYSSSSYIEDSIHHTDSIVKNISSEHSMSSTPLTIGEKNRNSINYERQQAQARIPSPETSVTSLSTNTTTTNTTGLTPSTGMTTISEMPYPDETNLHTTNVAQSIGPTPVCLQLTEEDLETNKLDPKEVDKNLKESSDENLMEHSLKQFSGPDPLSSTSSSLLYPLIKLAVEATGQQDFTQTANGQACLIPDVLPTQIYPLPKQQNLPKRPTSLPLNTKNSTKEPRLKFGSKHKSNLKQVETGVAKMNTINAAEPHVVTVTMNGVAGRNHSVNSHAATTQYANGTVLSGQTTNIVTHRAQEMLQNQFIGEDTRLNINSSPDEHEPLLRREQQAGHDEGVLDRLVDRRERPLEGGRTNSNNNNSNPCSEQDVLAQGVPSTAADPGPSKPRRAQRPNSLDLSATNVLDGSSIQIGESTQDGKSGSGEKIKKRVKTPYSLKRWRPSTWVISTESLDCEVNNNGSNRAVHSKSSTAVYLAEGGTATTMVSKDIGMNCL

## CCc1ccc(C(=O)Nc2cc(CN3CCN(C)CC3)cc(C(F)(F)F)c2)cc1C#Cc1cnc2ccnn2c1
[1]
  kinase still bound, per cent of control: 100%
ACVR2A (human)
  kinase still bound, per cent of control: 97%
AURKA (human)
  kinase still bound, per cent of control: 100%
BLK (human)
  kinase still bound, per cent of control: 100%
BMPR2 (human)
  kinase still bound, per cent of control: 90%
CAMK2B (human)
  kinase still bound, per cent of control: 72%
CAMKK1 (human)
  kinase still bound, per cent of control: 69%
CDC2L2 (human)
  kinase still bound, per cent of control: 100%
CDC42BPA (human)
  kinase still bound, per cent of control: 84%
CSNK1G1 (human)
  kinase still bound, per cent of control: 85%
DMPK (human)
  kinase still bound, per cent of control: 100%
DYRK1A (human)
  kinase still bound, per cent of control: 100%
EPHA1 (human)
  kinase still bound, per cent of control: 86%
EPHA3 (human)
  kinase still bound, per cent of control: 47%
EPHB3 (human)
  kinase still bound, per cent of control: 94%
ERBB3 (human)
  kinase still bound, per cent of control: 86%
GRK7 (human)
  kinase still bound, per cent of control: 100%
GSK3A (human)
  kinase still bound, per cent of control: 100%
IGF1R (human)
  kinase still bound, per cent of control: 100%
[2]
  kinase still bound, per cent of control: 100%
LATS2 (human)
  kinase still bound, per cent of control: 100%
LIMK2 (human)
  kinase still bound, per cent of control: 100%
LRRK2 (human)
  kinase still bound, per cent of control: 86%
MAP4K2 (human)
  kinase still bound, per cent of control: 100%
MAPK12 (human)
  kinase still bound, per cent of control: 72%
MAPK7 (human)
  kinase still bound, per cent of control: 100%
MET (human)
  kinase still bound, per cent of control: 100%
NUAK2 (human)
  kinase still bound, per cent of control: 100%
[3]
  kinase still bound, per cent of control: 100%
[4]
  kinase still bound, per cent of control: 100%
PIK3CD (human)
  kinase still bound, per cent of control: 74%
PRKCD (human)
  kinase still bound, per cent of control: 100%
RPS6KA4 KD1 (human)
  kinase still bound, per cent of control: 93%
SNRK (human)
  kinase still bound, per cent of control: 75%
SRPK1 (human)
  kinase still bound, per cent of control: 100%
STK35 (human)
  kinase still bound, per cent of control: 100%
TESK1 (human)
  kinase still bound, per cent of control: 73%
TNK2 (human)
  kinase still bound, per cent of control: 96%
[5]
  kinase still bound, per cent of control: 100%
YSK4 (human)
  kinase still bound, per cent of control: 100%
